Like-named read-outs stand apart in the source and are kept apart here.
System: ATF6
Test: ERSE ATF6-luciferase reporter assay (thapsigargin-induced ER stress)
Format: cell-based, human
Conditions: Homo sapiens, U2OS, thapsigargin-induced ER stress, U2-OS ATF6 luc reporter cells; for inhibition at 1 µM: 8 hr
Method: Human bone osteosarcoma (U2-OS) cells were obtained from the American Type Culture Collection (ATCC HTB-96, ATCC Manassas, VA) and were cultured with growing medium containing Dulbecco's Modified Eagle's Medium (DMEM) (Cat. No.:SH30023.02, HyClone) supplemented with fetal bovine serum (FBS) 10% (Cat. No.: 16000044, Gibco) and 1% penicillin-streptomycin antibiotic cocktail (Cat. No.: SV30010, Hyclone).
Cignal Lenti ATF6 luc reporter (Qiagen #CLS-6031L) was used to produce a stable cell line in U2-OS cells. […] The number of response elements as well as the intervening sequence between response elements has been experimentally optimized to maximize the signal to noise ratio.
Compounds were prepared as 10 mM stock solutions and stored at −80° C.
U2-OS ATF6 luc reporter cells were thawed 3-4 days and split once prior to assays. […] At the day of experiment, cells were pre-treated for 30 min with 50 μL growing medium containing either vehicle (dimethyl sulfoxide (DMSO)) (Cat. No.: D2650, Sigma-Aldrich) or 1 μM test compound. After the pre-incubation time, 50 μL of a solution containing 0.2 μM thapsigargin (Tg)(an ER stress inducer) was added to respective wells. This Tg solution also contained vehicle or test compounds at 1 μM. The final concentration of DMSO in each well was kept at 0.3%. Plates were incubated for 8 hr in humidified chambers.
Finally, after 8 hr, plates were cooled to room temperature for 10 min prior to luciferase assays. Luciferase reactions were performed using Luciferase Assay System (Cat. No.: E4550, Promega). Briefly, each well was washed with 100 μl of PBS1X and then 20 μl of lysis reagent were added into each well. Plates were shaken for 10 min, then 50 μl of Luciferase Assay Reagent were added to each well and luminescence was read with an integration time of 1 s and a gain of 110 in a Synergy 4 Microplate reader.
For the assessment of the half-maximal inhibitory concentration (IC50) for selected compounds, dose-response assays were performed. Compounds were serially diluted using DMSO starting at 30 μM until 1 nM. The assays were run as described above.

[1] = 8 h, read-out: Inh. ATF6-Luc @ 1 μM [%], 1 μM test compound
[2] = read-out: IC50 ATF6-Luc reporter [μM], dose-response 30 μM to 1 nM
[3] = 8 h, 1 μM test compound, read-out: Inh. ATF6-Luc @ 1 μM [%]
[4] = dose-response 30 μM to 1 nM, read-out: IC50 ATF6-Luc reporter
[5] = 1 μM test compound, read-out: Inh. ATF6-Luc @ 1 μM [%]

Row | IC50 [2] [µM] | IC50 [4] [µM] | Compound | inhibition at 1 µM [1] [%] | inhibition at 1 µM [3] [%] | inhibition at 1 µM [5] [%]
1 | > 10 | – | C[C@@H](c1ccc(C(F)(F)F)cc1C(F)(F)F)n1cc(NC(=O)c2cc(-c3cnccn3)on2)cn1 [Compound 132, (S)—N-(1-(1-(2,4-bis(trifluoromethyl)phenyl)ethyl)-1H-pyrazol-4-yl)-5-(pyrazin-2-yl)isoazole-3-carboxamide] | < 25 | – | –
2 | – | > 10 | CC(c1ccc(F)cc1C(F)(F)F)n1cc(NC(=O)c2nnc(-c3ccccn3)s2)cn1 (stereo not shown) [Compound 137, N-(1-(1-(4-fluoro-2-(trifluoromethyl)phenyl)ethyl)-1H-pyrazol-4-yl)-5-(pyridin-2-yl)-1,3,4-thiadiazole-2-carboxamide] | – | < 25 | –
3 | – | > 10 | O=C(Nc1cnn(Cc2ccc(C(F)(F)F)cc2C(F)(F)F)c1)c1cnc(Nc2ccccn2)s1 [Compound 130, N-(1-(2,4-bis(trifluoromethyl)benzyl)-1H-pyrazol-4-yl)-2-(pyridin-2-ylamino)thiazole-5-carboxamide] | – | < 25 | –
4 | – | > 10 | CC(c1ccc(C(F)(F)F)cc1C(F)(F)F)n1cc(NC(=O)c2cnc(-c3ccco3)s2)cn1 (stereo not shown) [Compound 80, N-(1-(1-(2,4-bis(trifluoromethyl)phenyl)ethyl)-1H-pyrazol-4-yl)-2-(furan-2-yl)thiazole-5-carboxamide] | – | < 25 | –
5 | – | > 10 | N#Cc1ccc(Cn2cc(NC(=O)c3cc(-c4ccco4)on3)cn2)cc1C(F)(F)F [Compound 26, N-(1-(4-cyano-3-(trifluoromethyl)benzyl)-1H-pyrazol-4-yl)-5-(furan-2-yl)isoxazole-3-carboxamide] | – | < 25 | –
6 | – | > 10 | O=C(Nc1cnn(C2CCc3ccccc32)c1)c1nnc(-c2ccco2)s1 (stereo not shown) [Compound 144, N-(1-(2,3-dihydro-1H-inden-1-yl)-1H-pyrazol-4-yl)-5-(furan-2-yl)-1,3,4-thiadiazole-2-carboxamide] | – | < 25 | –
7 | – | > 10 | CC(C)(C)c1cc(C(=O)Nc2cnn(Cc3ccc(C(F)(F)F)cc3C(F)(F)F)c2)no1 [Compound 13, N-{1-[2,4-bis(trifluoromethyl)benzyl]-1H-pyrazol-4-yl}-5-tert-butyl-1,2-oxazole-3-carboxamide] | – | < 25 | –
8 | – | > 10 | C[C@@H](c1ccc(C(F)(F)F)cc1C(F)(F)F)n1cc(NC(=O)c2cc(-c3ccccn3)[nH]n2)cn1 [Compound 120, (S)—N-(1-(1-(2,4-bis(trifluoromethyl)phenyl)ethyl)-1H-pyrazol-4-yl)-5-(pyridin-2-yl)-1H-pyrazole-3-carboxamide] | – | < 25 | –
9 | – | > 10 | O=C(Nc1cnn(Cc2c(Cl)cccc2Cl)c1)c1nnc(-c2ccco2)s1 [Compound 148, N-(1-(2,6-dichlorobenzyl)-1H-pyrazol-4-yl)-5-(furan-2-yl)-1,3,4-thiadiazole-2-carboxamide] | – | < 25 | –
10 | – | > 10 | C[C@@H](c1ccc(F)cc1C(F)(F)F)n1cc(NC(=O)c2cc(-c3ccccn3)on2)cn1 [Compound 111, (S)—N-(1-(1-(4-fluoro-2-(trifluoromethyl)phenyl)ethyl)-1H-pyrazol-4-yl)-5-(pyridin-2-yl)isoxazole-3-carboxamide] | – | < 25 | –
11 | – | > 10 | C[C@H](c1ccc(C(F)(F)F)cc1C(F)(F)F)n1cc(NC(=O)c2nnc(-c3ccccn3)o2)cn1 [Compound 133, (R)—N-(1-(1-(2,4-bis(trifluoromethyl)phenyl)ethyl)-1H-pyrazol-4-yl)-5-(pyridin-2-yl)-1,3,4-oxadiazole-2-carboxamide] | – | < 25 | –
12 | – | > 10 | O=C(Nc1cnn(Cc2c(Cl)cccc2Cl)c1)c1cc(-c2ccco2)on1 [Compound 24, N-(1-(2,6-dichlorobenzyl)-1H-pyrazol-4-yl)-5-(furan-2-yl) isoxazole-3-carboxamide] | – | < 25 | –
13 | – | > 10 | O=C(Nc1cnn(Cc2cc(C(F)(F)F)cc(C(F)(F)F)c2)c1)c1cc(-c2ccco2)on1 [Compound 28, N-(1-(3,5-bis(trifluoromethyl)benzyl)-1H-pyrazole-4-yl)-5-(furan-2-yl)isoxazole-3-carboxamide] | – | < 25 | –
14 | – | > 10 | C[C@H](c1ccc(C(F)(F)F)cc1C(F)(F)F)n1cc(NC(=O)c2nnc(-c3ccco3)s2)cn1 [Compound 160, (R)—N-(1-(1-(2,4-bis(trifluoromethyl)phenyl)ethyl)-1H-pyrazol-4-yl)-5-(furan-2-yl)-1,3,4-thiadiazole-2-carboxamide] | – | < 25 | –
15 | – | > 10 | O=C(Nc1cnn(-c2ccc(C(F)(F)F)cc2C(F)(F)F)c1)c1cc(-c2ccco2)on1 [Compound 27, N-(1-(2,4-bis(trifluoromethyl)phenyl)-1H-pyrazol-4-yl)-5-(furan-2-yl)isoxazole-3-carboxamide] | – | < 25 | –
16 | – | > 10 | Cc1c(NC(=O)c2cc(-c3ccccn3)on2)cnn1[C@@H](C)c1ccc(C(F)(F)F)cc1C(F)(F)F [Compound 98, (S)—N-(1-(1-(2,4-bis(trifluoromethyl)phenyl)ethyl)-5-methyl-1H-pyrazol-4-yl)-5-(pyridin-2-yl)isoxazole-3-carboxamide] | – | < 25 | –
17 | – | > 10 | O=C(Nc1cnn(Cc2c(Cl)cccc2Cl)c1)c1cnc(-c2ccco2)s1 [Compound 147, N-(1-(2,6-dichlorobenzyl)-1H-pyrazol-4-yl)-2-(furan-2-yl)thiazole-5-carboxamide] | – | < 25 | –
18 | – | > 10 | C[C@@H](c1ccc(C(F)(F)F)cc1C(F)(F)F)n1cc(NC(=O)/C=C/c2ccco2)cn1 [Compound 86, (S,E)—N-(1-(1-(2,4-bis(trifluoromethyl)phenyl)ethyl)-1H-pyrazol-4-yl)-3-(furan-2-yl)acrylamide] | – | < 25 | –
19 | – | > 10 | O=C(Nc1cnn([C@@H]2CCc3ccccc32)c1)c1cc(-c2ccco2)on1 [Compound 149, (R)—N-(1-(2,3-dihydro-1H-inden-1-yl)-1H-pyrazol-4-yl)-5-(furan-2-yl)isoxazole-3-carboxamide] | – | < 25 | –
20 | – | > 10 | C[C@H](c1ccc(C(F)(F)F)cc1F)n1cc(NC(=O)c2cc(-c3ccccn3)on2)cn1 [Compound 108, (R)—N-(1-(1-(2-fluoro-4-(trifluoromethyl)phenyl)ethyl)-1H-pyrazol-4-yl)-5-(pyridine-2-yl)isoxazole-3-carboxamide] | – | < 25 | –
21 | – | > 10 | O=C(Nc1cnn(Cc2c(Cl)cccc2Cl)c1)c1cc(-c2ccccn2)on1 [Compound 146, N-(1-(2,6-dichlorobenzyl)-1H-pyrazol-4-yl)-5-(pyridin-2-yl)isoxazole-3-carboxamide] | – | < 25 | –
22 | > 10 | – | C[C@@H](c1ccc(C(F)(F)F)cc1C(F)(F)F)n1cc(NC(=O)c2cc(-c3ccccn3)no2)cn1 [Compound 77, (S)—N-(1-(1-(2,4-bis(trifluoromethyl)phenyl)ethyl)-1H-pyrazol-4-yl)-3-(pyridin-2-yl)isoxazole-5-carboxamide] | < 25 | – | –
23 | – | > 10 | O=C(Nc1cnn(C2CCc3ccccc32)c1)c1cc(-c2ccccn2)on1 (stereo not shown) [Compound 143, N-(1-(2,3-dihydro-1H-inden-1-yl)-1H-pyrazol-4-yl)-5-(pyridin-2-yl)isoxazole-3-carboxamide] | – | < 25 | –
24 | – | > 10 | Cc1nn(Cc2ccc(C(F)(F)F)cc2C(F)(F)F)cc1NC(=O)/C=C/c1ccco1 [Compound 96, (E)—N-(1-(2,4-bis(trifluoromethyl)benzyl)-3-methyl-1H-pyrazol-4-yl)-3-(furan-2-yl)acrylamide] | – | < 25 | –

Row | Compound | IC50 [2] [µM] | IC50 [4] [µM] | inhibition at 1 µM [1] [%] | inhibition at 1 µM [3] [%] | inhibition at 1 µM [5] [%]
25 | O=C(/C=C/c1ccco1)Nc1cnn(Cc2ccc(C(F)(F)F)cc2C(F)(F)F)c1 [Compound 84, (E)—N-(1-(2,4-bis(trifluoromethyl)benzyl)-1H-pyrazol-4-yl)-3-(furan-2-yl)acrylamide] | – | > 10 | – | – | < 25
26 | COc1ccccc1-c1cc(C(=O)Nc2cnn(Cc3ccc(C(F)(F)F)cc3C(F)(F)F)c2)no1 [Compound 91, N-(1-(2,4-bis(trifluoromethyl)benzyl)-1H-pyrazol-4-yl)-5-(2-methoxyphenyl)isoxazole-3-carboxamide] | – | > 10 | – | – | < 25

— patent publication US20240124434A1, “ATF6 INHIBITORS AND USES THEREOF” (Altos Labs, Inc., priority 2018, published 2024)
